Measurements taken from PubChem BioAssay (NCI).
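Each compound was tested at five concentrations against cells in 96-well plates for 48 hours. At the GI50, growth is halved. Definition used: TGI = concentration required for complete inhibition of growth.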

The compounds below were run on LOX IMVI melanoma (assay: inhibition of tumour cell growth, NCI panel, 48 h).
Compound CSc1nc(SC)c2c(C#N)[nH]nc2n1 has a TGI greater than 100 µM.
In the case of COc1c(O)c2c(=O)cc3c4c5c(cc(=O)c6c(O)c(OC)c(CC(C)O)c(c(c1CC(C)O)c24)c65)OCO3 (stereo not drawn), the TGI is reported as 2.28 µM.
Compound COc1ccc(CCN(C)C2CCC(C#N)(c3ccc(OC)c(OC)c3)CC2)cc1OC (stereo not drawn) has a TGI greater than 100 µM.
NS(=O)(=O)c1ccc(N=Nc2c(O)c(C(=O)O)cc3ccccc23)cc1 was tested, and the TGI was greater than 100 µM.
Cc1c(N(C)C)ccc2c(=O)c3cccc(CC(=O)O)c3oc12 gave a TGI greater than 100 µM.
In the case of CCOC(=O)c1nc2c(OC)nn(O)cc-2c1[N+](=O)[O-], the TGI is reported as 30 µM.
With C/C(CC(=O)Nc1ccc(C)c(C)c1)=N\N(c1ccccc1)c1ccccc1 the TGI was greater than 100 µM.
For COC(=O)/C(=N\NC(N)=S)C(C(=O)OC)C(=O)C(=O)Nc1ccc(C)cc1 (stereo not drawn), the TGI was greater than 100 µM.
Work on O=C(OC1CCC(=C2SCCCS2)[C@H]1C1SCCCS1)c1ccccc1 (stereo partly drawn) yielded a TGI greater than 100 µM.
Compound O=C1CCC2(c3ccc(Cl)cc3)Nc3cc(Cl)ccc3N12 (stereo not drawn) has a TGI of 24.5 µM.
In the case of CC(NCCC(c1ccccc1)c1ccccc1)c1ccccc1 (stereo not drawn), the GI50 is reported as 1.59 µM and the TGI is reported as 2.93 µM.
Compound O=C(/C(=C/c1ccc(Cl)cc1)c1ccccc1)c1ccccc1 has a TGI of 29 µM.
In the case of CC1(C)COC(c2cccc3c2C(=O)c2cccc(Cl)c2-3)=N1, the TGI is reported as greater than 100 µM.
With CN(C)CCC(/C=C/c1ccccc1)=N\Nc1ccccc1 the TGI was 0.454 µM.
With C/C(N=NC(=S)N1CC2CCC(CC2)C1)=C1\C=CC=CN1O the TGI was greater than 50.7 µM.
In the case of CCOC(=O)c1ccc(/C(C)=N/NC(N)=S)cc1, the TGI is reported as greater than 100 µM.
c1ccc2c(OCCSCCCCCCCCCCSCCOc3cccc4ccccc34)cccc2c1 was tested, and the TGI was greater than 100 µM.
In the case of O=C(Nc1ccc(Br)cc1F)c1cc(Cl)ccc1O, the GI50 is reported as 0.501 µM and the TGI is reported as 3.76 µM.
Work on NC(N)=N/N=C/c1c(Cl)cccc1Cl yielded a GI50 of 14.4 µM and a TGI of 30.1 µM.
Cc1cc2c(=O)c3ccccc3[nH]c2c(C(N)=O)c1C was tested, and the TGI was greater than 100 µM.
O=C(Nc1cccc(C(F)(F)F)c1)c1ccc(NC2=C(Cl)C(=O)N(Cc3ccc(Cl)cc3Cl)C2=O)cc1 was tested, and the GI50 was 1.63 µM and the TGI was 3.44 µM.
Work on CCC[CH2][Sn]([CH2]CCC)([O]C(=O)c1ccc(OC)c(OC)c1OC)[O][Sn]([CH2]CCC)([CH2]CCC)[O]C(=O)c1ccc(OC)c(OC)c1OC yielded a GI50 of 0.134 µM and a TGI of 0.292 µM.
CN1CCC(=O)/C(=C/c2ccccc2)C1 gave a TGI of 14.6 µM.

These compounds were tested on LXFL 529 NSCLC (assay: inhibition of tumour cell growth, NCI panel, 48 h).
Work on COC(=O)C(=Cc1cc(OC)c(OC)c(OC)c1-c1cc2c(cc1C1(C)OCCS1)OCO2)C(=O)OC (stereo not drawn) yielded a TGI greater than 100 µM.
In the case of C#CC1/C(=C\C(=O)OC)CCCC1O (stereo not drawn), the TGI is reported as greater than 100 µM.
Compound CC12CCC(=O)C[C@H]1CCC(OC=O)C2Br (stereo partly drawn) has a TGI greater than 100 µM.
COc1ccc(OCC(=O)O)c2c1CCCC2=O gave a TGI greater than 100 µM.
In the case of Cc1nc(Nc2ccc(Cl)cc2)sc1C(=O)NNC(=S)NN, the TGI is reported as 36.4 µM.
In the case of COc1ccc2c(c1OCC(=O)O)C(=O)C(CCC(=O)O)CC2 (stereo not drawn), the TGI is reported as greater than 100 µM.
In the case of Cc1ccc2nc(/C(=C/c3ccc(/C=C(\NC(=O)c4ccccc4)c4nc5ccc(C)cc5[nH]4)c(C)c3)NC(=O)c3ccccc3)[nH]c2c1, the TGI is reported as 12.2 µM.
In the case of COC1C(OC(=S)Nc2ccccc2)c2ccccc2N1C(C)=O (stereo not drawn), the TGI is reported as greater than 100 µM.
O=C(Nc1cccc(Cl)c1)C(=O)C(C(=O)c1ccc2ccccc2c1)C1OC(=O)c2ccccc21 (stereo not drawn) was tested, and the TGI was 21.9 µM.
CC1=Cc2cccc(C)c2C(=O)C1=O gave a TGI of 5.27 µM.
Cc1ccc(C)c(NC(=O)c2cccc([N+](=O)[O-])c2O)c1 gave a TGI greater than 100 µM.
With COCC(OC)C(CC=C(C#N)C#N)OC (stereo not drawn) the TGI was greater than 100 µM.
Work on N#CC(C(=O)/C(=N\NC(N)=O)C(C#N)c1ccc(Cl)cc1)c1ccc(Cl)cc1 (stereo not drawn) yielded a TGI greater than 100 µM.
CC(C)(C)c1cc(C(P(=O)(O)O)P(=O)(O)O)cc(C(C)(C)C)c1O was tested, and the TGI was greater than 100 µM.
Work on CC(C)C1=Cc2ccc3c(c2C(=O)C1=O)CCCC3(C)C yielded a TGI of 3.45 µM.
COc1c(O)c2c(=O)cc3c4c5c(cc(=O)c6c(O)c(OC)c(CC(C)O)c(c(c1CC(C)O)c24)c65)OCO3 (stereo not drawn) was tested, and the TGI was 11.4 µM.
COc1ccc(CCN(C)C2CCC(C#N)(c3ccc(OC)c(OC)c3)CC2)cc1OC (stereo not drawn) was tested, and the TGI was greater than 100 µM.
CCOC(=O)c1nc2c(OC)nn(O)cc-2c1[N+](=O)[O-] was tested, and the TGI was 31 µM.
In the case of C/C(CC(=O)Nc1ccc(C)c(C)c1)=N\N(c1ccccc1)c1ccccc1, the TGI is reported as greater than 100 µM.
Compound COC(=O)/C(=N\NC(N)=S)C(C(=O)OC)C(=O)C(=O)Nc1ccc(C)cc1 (stereo not drawn) has a TGI greater than 100 µM.
O=C(OC1CCC(=C2SCCCS2)[C@H]1C1SCCCS1)c1ccccc1 (stereo partly drawn) gave a TGI greater than 100 µM.
With O=C1CCC2(c3ccc(Cl)cc3)Nc3cc(Cl)ccc3N12 (stereo not drawn) the TGI was 24.6 µM.
O=C(/C(=C/c1ccc(Cl)cc1)c1ccccc1)c1ccccc1 showed a TGI of 33.7 µM.
Compound CC1(C)COC(c2cccc3c2C(=O)c2cccc(Cl)c2-3)=N1 has a TGI greater than 100 µM.
CN(C)CCC(/C=C/c1ccccc1)=N\Nc1ccccc1 gave a TGI of 0.462 µM.
With CCOC(=O)c1ccc(/C(C)=N/NC(N)=S)cc1 the TGI was greater than 100 µM.
Cc1cc2c(=O)c3ccccc3[nH]c2c(C(N)=O)c1C was tested, and the TGI was greater than 100 µM.
Compound CCC[CH2][Sn]([CH2]CCC)([O]C(=O)c1ccc(OC)c(OC)c1OC)[O][Sn]([CH2]CCC)([CH2]CCC)[O]C(=O)c1ccc(OC)c(OC)c1OC has a GI50 of 0.02 µM and a TGI of 0.0938 µM.
In the case of CN1CCC(=O)/C(=C/c2ccccc2)C1, the TGI is reported as 17.6 µM.

What follows are compounds tested on M19-MEL melanoma (assay: inhibition of tumour cell growth, NCI panel, 48 h).
COC(=O)C(=Cc1cc(OC)c(OC)c(OC)c1-c1cc2c(cc1C1(C)OCCS1)OCO2)C(=O)OC (stereo not drawn) showed a TGI greater than 100 µM.
C#CC1/C(=C\C(=O)OC)CCCC1O (stereo not drawn) gave a TGI greater than 100 µM.
CC12CCC(=O)C[C@H]1CCC(OC=O)C2Br (stereo partly drawn) gave a TGI greater than 100 µM.
With COc1ccc(OCC(=O)O)c2c1CCCC2=O the TGI was greater than 100 µM.
Cc1nc(Nc2ccc(Cl)cc2)sc1C(=O)NNC(=S)NN showed a TGI of 40.7 µM.
In the case of COc1ccc2c(c1OCC(=O)O)C(=O)C(CCC(=O)O)CC2 (stereo not drawn), the TGI is reported as greater than 100 µM.
For Cc1ccc2nc(/C(=C/c3ccc(/C=C(\NC(=O)c4ccccc4)c4nc5ccc(C)cc5[nH]4)c(C)c3)NC(=O)c3ccccc3)[nH]c2c1, the TGI was 44.8 µM.
For COC1C(OC(=S)Nc2ccccc2)c2ccccc2N1C(C)=O (stereo not drawn), the TGI was greater than 100 µM.
In the case of O=C(Nc1cccc(Cl)c1)C(=O)C(C(=O)c1ccc2ccccc2c1)C1OC(=O)c2ccccc21 (stereo not drawn), the TGI is reported as 39.1 µM.
In the case of CC1=Cc2cccc(C)c2C(=O)C1=O, the TGI is reported as 23.6 µM.
In the case of Cc1ccc(C)c(NC(=O)c2cccc([N+](=O)[O-])c2O)c1, the TGI is reported as 82.1 µM.
COCC(OC)C(CC=C(C#N)C#N)OC (stereo not drawn) gave a TGI greater than 100 µM.
On1c(-c2ccccc2)c(-c2ccccc2N2CCCC2)c2ccccc21 gave a TGI greater than 100 µM.
In the case of N#CC(C(=O)/C(=N\NC(N)=O)C(C#N)c1ccc(Cl)cc1)c1ccc(Cl)cc1 (stereo not drawn), the TGI is reported as greater than 100 µM.
Work on CC(C)(C)c1cc(C(P(=O)(O)O)P(=O)(O)O)cc(C(C)(C)C)c1O yielded a TGI greater than 100 µM.
CC(C)C1=Cc2ccc3c(c2C(=O)C1=O)CCCC3(C)C showed a TGI of 6.99 µM.
CSc1nc(SC)c2c(C#N)[nH]nc2n1 was tested, and the TGI was greater than 100 µM.
Compound COc1c(O)c2c(=O)cc3c4c5c(cc(=O)c6c(O)c(OC)c(CC(C)O)c(c(c1CC(C)O)c24)c65)OCO3 (stereo not drawn) has a TGI of 2.08 µM.
COc1ccc(CCN(C)C2CCC(C#N)(c3ccc(OC)c(OC)c3)CC2)cc1OC (stereo not drawn) was tested, and the TGI was greater than 100 µM.
Cc1c(N(C)C)ccc2c(=O)c3cccc(CC(=O)O)c3oc12 gave a TGI greater than 100 µM.
Compound CCOC(=O)c1nc2c(OC)nn(O)cc-2c1[N+](=O)[O-] has a TGI of 89.2 µM.
In the case of COC(=O)/C(=N\NC(N)=S)C(C(=O)OC)C(=O)C(=O)Nc1ccc(C)cc1 (stereo not drawn), the TGI is reported as greater than 100 µM.
For O=C(OC1CCC(=C2SCCCS2)[C@H]1C1SCCCS1)c1ccccc1 (stereo partly drawn), the TGI was greater than 100 µM.
Work on O=C1CCC2(c3ccc(Cl)cc3)Nc3cc(Cl)ccc3N12 (stereo not drawn) yielded a TGI of 25.5 µM.
In the case of CN(C)CCC(/C=C/c1ccccc1)=N\Nc1ccccc1, the TGI is reported as 3.63 µM.
